According to ChEMBL document CHEMBL5505949, “Synthesis and clinical application of small-molecule inhibitors of Janus kinase” (Eur J Med Chem, 2023):

Key:
[1] = biological target: T1, Tyrosine-protein kinase JAK3 (Homo sapiens, UniProt P52333); experiment: Inhibition of JAK3 (unknown origin)
T1 sequence (P52333 whole entry): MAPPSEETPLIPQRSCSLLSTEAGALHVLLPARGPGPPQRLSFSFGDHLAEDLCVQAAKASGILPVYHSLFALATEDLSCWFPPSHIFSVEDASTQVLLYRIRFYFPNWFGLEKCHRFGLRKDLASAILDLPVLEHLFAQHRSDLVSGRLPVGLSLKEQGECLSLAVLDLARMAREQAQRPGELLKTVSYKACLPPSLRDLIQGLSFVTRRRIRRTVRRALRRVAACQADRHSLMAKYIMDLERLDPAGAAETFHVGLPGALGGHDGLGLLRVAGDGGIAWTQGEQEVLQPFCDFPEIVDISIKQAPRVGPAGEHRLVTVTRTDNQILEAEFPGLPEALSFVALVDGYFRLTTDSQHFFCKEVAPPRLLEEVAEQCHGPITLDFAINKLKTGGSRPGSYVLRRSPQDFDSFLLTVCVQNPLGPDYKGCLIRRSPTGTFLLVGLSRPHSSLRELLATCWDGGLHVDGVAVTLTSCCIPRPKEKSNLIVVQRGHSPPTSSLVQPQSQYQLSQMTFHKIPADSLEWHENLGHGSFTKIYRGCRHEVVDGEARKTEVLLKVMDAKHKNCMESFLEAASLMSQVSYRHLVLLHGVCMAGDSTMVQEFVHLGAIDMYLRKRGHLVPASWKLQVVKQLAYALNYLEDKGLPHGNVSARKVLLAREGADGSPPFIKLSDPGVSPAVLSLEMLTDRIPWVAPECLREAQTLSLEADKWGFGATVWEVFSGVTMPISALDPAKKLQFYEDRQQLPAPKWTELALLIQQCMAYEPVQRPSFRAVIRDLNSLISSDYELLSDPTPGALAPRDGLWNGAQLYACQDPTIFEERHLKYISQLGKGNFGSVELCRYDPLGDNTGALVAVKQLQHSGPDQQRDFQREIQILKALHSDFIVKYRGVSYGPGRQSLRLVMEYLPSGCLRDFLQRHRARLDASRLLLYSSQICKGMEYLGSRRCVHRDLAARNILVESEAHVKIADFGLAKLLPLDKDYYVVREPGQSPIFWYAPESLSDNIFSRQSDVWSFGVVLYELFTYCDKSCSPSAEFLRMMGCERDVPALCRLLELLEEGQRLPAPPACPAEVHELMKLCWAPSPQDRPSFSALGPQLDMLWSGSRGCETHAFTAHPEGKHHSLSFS

[2] = biological target: T2, Tyrosine-protein kinase JAK2 (Homo sapiens, UniProt O60674); experiment: Inhibition of JAK2 (unknown origin)
T2 sequence (O60674 whole entry): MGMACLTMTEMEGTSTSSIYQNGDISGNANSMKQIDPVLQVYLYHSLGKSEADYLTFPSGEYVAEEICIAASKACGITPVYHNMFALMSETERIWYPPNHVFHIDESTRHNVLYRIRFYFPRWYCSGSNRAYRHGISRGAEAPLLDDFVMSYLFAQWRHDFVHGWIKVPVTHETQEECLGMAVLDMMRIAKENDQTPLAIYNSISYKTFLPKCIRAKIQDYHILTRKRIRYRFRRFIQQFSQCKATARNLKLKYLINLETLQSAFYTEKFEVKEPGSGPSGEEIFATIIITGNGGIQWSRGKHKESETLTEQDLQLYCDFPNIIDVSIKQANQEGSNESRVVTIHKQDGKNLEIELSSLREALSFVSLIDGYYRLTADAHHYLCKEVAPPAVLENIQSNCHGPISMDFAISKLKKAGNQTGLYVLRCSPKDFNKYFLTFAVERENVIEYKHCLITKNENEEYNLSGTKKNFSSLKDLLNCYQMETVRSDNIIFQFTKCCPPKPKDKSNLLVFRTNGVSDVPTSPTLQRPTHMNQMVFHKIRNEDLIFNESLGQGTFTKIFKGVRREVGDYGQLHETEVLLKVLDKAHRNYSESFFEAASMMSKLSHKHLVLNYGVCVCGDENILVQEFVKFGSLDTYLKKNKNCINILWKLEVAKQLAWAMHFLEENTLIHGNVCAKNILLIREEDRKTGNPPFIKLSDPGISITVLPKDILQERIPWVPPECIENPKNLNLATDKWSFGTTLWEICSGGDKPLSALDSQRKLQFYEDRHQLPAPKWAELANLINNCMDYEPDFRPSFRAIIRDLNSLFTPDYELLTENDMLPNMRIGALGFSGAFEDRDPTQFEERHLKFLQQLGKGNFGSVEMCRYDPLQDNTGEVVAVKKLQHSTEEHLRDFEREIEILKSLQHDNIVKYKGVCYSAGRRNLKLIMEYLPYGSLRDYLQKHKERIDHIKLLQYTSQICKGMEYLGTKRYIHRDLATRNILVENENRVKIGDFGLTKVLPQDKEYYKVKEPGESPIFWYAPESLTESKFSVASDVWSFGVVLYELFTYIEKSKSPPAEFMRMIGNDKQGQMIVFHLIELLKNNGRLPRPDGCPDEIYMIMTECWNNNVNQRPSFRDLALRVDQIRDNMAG

[3] = biological target: Tyrosine-protein kinase JAK2 (Homo sapiens, UniProt O60674, V617F); experiment: Inhibition of JAK2 V617F mutant (unknown origin)
Sequence of Tyrosine-protein kinase JAK2 (Homo sapiens, UniProt O60674, V617F) (O60674 whole entry V617F): as the sequence (O60674 whole entry) above, with V617F counted along it

[4] = biological target: T2, Tyrosine-protein kinase JAK2; experiment: Inhibition of wild type JAK2 (unknown origin)

## COc1nn(C)cc1Nc1nccc(-c2c[nH]c3c(NC(=O)[C@@H](C)N4CCN(C)CC4)cccc23)n1 [GOLIDOCITINIB]
[1]
  IC50: 30 µM
[2]
  IC50: 14.7 µM

## Cc1cc(Nc2cc(CN3CCOCC3)c3nc(C)c(Cc4ccc(Cl)cc4F)n3n2)n[nH]1 [GANDOTINIB]
[3]
  IC50: 0.055 µM
[4]
  IC50: 2.26 µM
[2]
  IC50: 0.068 µM
